Structures can show the parent of a compound that is named as a salt.
Each compound was assayed against RIPK1 (recombinant GST-RIPK1 kinase domain, residues 1-327) (Homo sapiens (Human), UniProt Q13546) (assay: RIPK1-ADP-Glo Enzymatic Assay). Conditions: ADP-Glo; 25 nM GST-RIPK1, 300 μM ATP; assay lower limit ~25 nM; read-out: RIPK1 V0 Ec50.
Assay type: biochemical
Summary of the method: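 Using dephosphorylated MBP (3 μM) as substrate and 300 μM ATP, 25 nM baculovirus-produced enzyme was reacted for 150 min after a 30-min compound pre-incubation. Luminescent ADP detection followed; lower confidence limit ~25 nM.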

RIPK1 (recombinant GST-RIPK1 kinase domain, residues 1-327), sequence (Q13546 1-327): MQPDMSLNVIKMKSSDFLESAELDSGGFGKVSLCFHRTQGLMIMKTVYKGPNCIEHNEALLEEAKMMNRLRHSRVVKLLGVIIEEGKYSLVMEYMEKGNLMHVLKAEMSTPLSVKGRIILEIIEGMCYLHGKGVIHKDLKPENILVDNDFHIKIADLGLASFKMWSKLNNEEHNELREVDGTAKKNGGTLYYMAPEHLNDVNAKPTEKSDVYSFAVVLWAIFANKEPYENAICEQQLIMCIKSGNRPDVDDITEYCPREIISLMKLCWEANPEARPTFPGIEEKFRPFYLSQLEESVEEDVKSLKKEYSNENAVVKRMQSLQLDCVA

Row | EC50 [nM] | SMILES
1 | 36.5 | O=C(c1c(Cl)nc2ccccn12)N1CCC2(CC1)O[C@@H]1CC[C@@H](c3cc(F)cc(F)c3)N1C2=O [Example 6.31, (5′S,7a′R)-1-(2-chloroimidazo[1,2-a]pyridine-3-carbonyl)-5′-(3,5-difluorophen-yl)tetrahydro-3′H-spiro[piperidine-4,2′-pyrrolo[2,1-b][1,3]oxazol]-3′-one]
2 | < 25 | O=C(c1nc(N2CCC3(CC2)O[C@@H]2CC[C@@H](c4cc(F)cc(F)c4)N2C3=O)ncc1F)N1CC(C(F)F)C1 [Example 7.8, (5′S,7a′R)-1-{4-[3-(difluoromethyl)azetidine-1-carbonyl]-5-fluoropyrimidin-2-yl}-5′-(3,5-difluorophenyl)tetrahydro-3′H-spiro[piperidine-4,2′-pyrrolo[2,1-b][1,3]oxazol]-3′-one]
3 | < 25 | C#Cc1ccc(N2CCC3(CC2)O[C@@H]2CC[C@@H](c4ccccc4)N2C3=O)n2ncnc12 [Example 21.24, (5′S,7a′R)-1-(8-ethynyl[1,2,4]triazolo [1,5-a]pyridin-5-yl)-5′-phenyltetrahydro-3′H-spiro[piperidine-4,2′-pyrrolo[2,1-b][1,3]oxazol]-3′-one]
4 | 86 | O=C(c1cnc(Cl)cn1)N1CCC2(CC1)O[C@@H]1CC[C@@H](c3cc(F)cc(F)c3)N1C2=O [Example 6.86, (5′S,7a′R)-1-(5-chloro-pyrazine-2-carbonyl)-5′-(3,5-difluorophen-yl)tetrahydro-3′H-spiro[piperidine-4,2′-pyrrolo[2,1-b][1,3]-oxazol]-3′-one]
5 | < 25 | O=C1N2[C@@H](CC[C@H]2c2cc(F)cc(F)c2)OC12CCN(c1ccc(F)c3ccnn13)CC2 [Example 16.1, (5′S,7a′R)-5′-(3,5-difluorophenyl)-1-(4-fluoropyrazolo[1,5-a]pyridin-7-yl)tetrahydro-3′H-spiro[piperidine-4,2′-pyrrolo[2,1-b]oxazol]-3′-one, TFA salt]
6 | 276 | O=C(c1cnc2cccnn12)N1CCC2(CC1)O[C@@H]1CC[C@@H](c3cc(F)cc(F)c3)N1C2=O [Example 6.16, (5′S,7a′R)-5′-(3,5-difluorophenyl)-1-(imidazo[1,2-b]-pyridazine-3-carbon-yl)tetrahydro-3′H-spiro[piperidine-4,2′-pyrrolo[2,1-b][1,3]oxazol]-3′-one]
7 | < 25 | O=C(c1ccc(F)cc1F)N1CCC2(CC1)O[C@@H]1CC[C@@H](c3cccc(F)c3)N1C2=O [Example 6.114, (5′S,7a′R)-1-(2,4-difluorobenzene-1-carbonyl)-5′-(3-fluoro-phenyl)tetrahydro-3′H-spiro[piperidine-4,2′-pyrrolo[2,1-b] [1,3]oxazol]-3′-one]
8 | 25 | CCOc1cnc(N2CCC3(CC2)O[C@@H]2CC[C@@H](c4ccccc4)N2C3=O)n2ncnc12 [Example 19.7, (5′S,7a′R)-1-(8-ethoxy[1,2,4]triazolo [1,5-c]pyrimidin-5-yl)-5′-phenyltetrahydro-3′H-spiro[piperidine-4,2′-pyrrolo[2,1-b][l,3]oxazol]-3′-one]
9 | 32.2 | Cc1ccc(F)c(C(=O)N2CCC3(CC2)O[C@@H]2CC[C@@H](c4cc(F)cc(F)c4)N2C3=O)n1 [Example 6.104, (5′S,7a′R)-5′-(3,5-difluorophenyl)-1-(3-fluoro-6-methylpyri-dine-2-carbonyl)tetra-hydro-3′H-spiro[piperi-dine-4,2′-pyrrolo[2,1-b][1,3]oxazol]-3′-one]
10 | 94.4 | O=C(c1ccccc1)N1CCC2(CC1)O[C@@H]1CC[C@@H](c3ccc(F)cn3)N1C2=O [Example 17.6, (5′S,7a′R)-1-benzoyl-5′-(5-fluoropyridin-2-yl)tetrahydro-3′H-spiro[piperidine-4,2′-pyrrolo[2,1-b]oxazol]-40′-one, TFA salt]
11 | < 25 | O=C1N2[C@@H](CC[C@H]2c2ccccc2)OC12CCN(c1ncc(-c3ncco3)cn1)CC2 [Example 21.15, (5′S,7a′R)-1-[5-(1,3-oxazol-2-yl)pyrimidin-2-yl]-5′-phenyltetrahydro-3′H-spiro[piperidine-4,2′-pyrrolo[2,1-b][1,3]oxazol]-3′-one]

More lines, now with the values behind:

Row | SMILES | EC50 [nM]
12 | CC(C)OC(=O)c1ccc(N2CCC3(CC2)O[C@@H]2CC[C@@H](c4ccccc4)N2C3=O)nc1 [Example 4.190, propan-2-yl 6-[(5′S,7a′R)-3′-oxo-5′-phenyltetrahydro-1H,3′H-spiro[piperidine-4,2′-pyrrolo[2,1-b] [1,3]oxazol]-1-yl]pyridine-3-carboxylate] | 92.6
13 | N#Cc1cnc(N2CCC3(CC2)O[C@@H]2CC[C@@H](c4ccccc4)N2C3=O)cc1OC(F)F [Example 4.206, 4-(difluoromethoxy)-6-[(5′S,7a′R)-3′-oxo-5′-phenyltetrahydro-1H,3′H-spiro[piperidine-4,2′-pyrrolo[2,1-b] [1,3]oxazol]-1-yl]pyridine-3-carbonitrile] | < 25
14 | O=C1N2[C@@H](CC[C@H]2c2cccc(F)c2)OC12CCN(c1ccnc3ccnn13)CC2 [Example 4.123, (5′S,7a′R)-5′-(3-fluorophenyl)-1-(pyrazolo[1,5-a]pyrimidin-7-yl)tetrahydro-3′H-spiro[piperidine-4,2′-pyrrolo[2,1-b] [1,3]oxazol]-3′-one] | < 25
15 | N#Cc1cnc(N2CCC3(CC2)O[C@@H]2CC[C@@H](c4cc(F)cc(F)c4)N2C3=O)s1 [Example 4.101, 2-((5′S,7a′R)-5′-(3,5-difluorophenyl)-3′-oxotetrahydro-3′H-spiro[piperidine-4,2′-pyrrolo[2,1-b]oxazol]-1-yl)thiazole-5-carbonitrile] | 40.4
16 | O=C1N2[C@@H](CC[C@H]2c2ccccc2)OC12CCN(c1cc(F)c(O)cn1)CC2 [Example 4.209, (5′S,7a′R)-1-(4-fluoro-5-hydroxypyridin-2-yl)-5′-phenyltetrahydro-3′H-spiro[piperidine-4,2′-pyrrolo[2,1-b] [1,3]oxazol]-3′-one] | 166
17 | CC1CN(c2ccnc3ccnn23)CCC12O[C@@H]1CC[C@@H](c3ccccc3)N1C2=O (stereo partly drawn) [Example 4.246, (4R,5′S,7a′R)-3-methyl-5′-phenyl-1-(pyrazolo[1,5-a]pyrimidin-7-yl)tetrahydro-3′H-spiro[piperidine-4,2′-pyrrolo[2,1-b] [1,3]oxazol]-3′-one] | < 25
18 | O=C(c1ccccc1)N1CCC2(O[C@@H]3CC[C@@H](c4ccccc4)N3C2=O)C(F)C1 (single isomer, unassigned) [Example 2.3, (3[S or R],4[R or S], 5′S,7a′R)-1-benzoyl-3-fluoro-5′-phenyltetrahydro-3′H-spiro[piperidine-4,2′-pyrrolo[2,1-b]oxazol]-3′-one] | < 25
19 | Cc1cc(N2CCC3(CC2)O[C@@H]2CC[C@@H](c4ccccc4)N2C3=O)nc(C#N)n1 [Example 4.2, 4-methyl-6-[(5′S,7a′R)-3′-oxo-5′-phenyltetrahydro-1H,3′H-spiro[piperidine-4,2′-pyrrolo[2,1-b] [1,3]oxazol]-1-yl]pyrimidine-2-carbonitrile] | < 25
20 | NC(=O)c1nc(N2CCC3(CC2)O[C@@H]2CC[C@@H](c4cc(F)cc(F)c4)N2C3=O)ncc1F [Example 4.184, 2-[(5′S,7a′R)-5′-(3,5-difluorophenyl)-3′-oxotetrahydro-1H,3′H-spiro[piperidine-4,2′-pyrrolo[2,1-b] [1,3]oxazol]-1-yl]-5-fluoropyrimidine-4-carboxamide] | < 25
21 | O=C(c1cccc(F)c1F)N1CCC2(CC1)O[C@@H]1CC[C@@H](c3ccccc3)N1C2=O [Example 5.9, (5′S,7a′R)-1-(2,3-difluorobenzene-1-car-bonyl)-5′-phenyltetra-hydro-3′H-spiro[piperi-dine-4,2′-pyrrolo[2,1-b] [1,3]oxazol]-3′-one] | < 25
22 | N#Cc1ccc(N2CCC3(CC2)O[C@@H]2CC[C@@H](c4ccccc4)N2C3=O)c(F)c1 [Example 4.73, 3-fluoro-4-[(5′S,7a′R)-3′-oxo-5′-phenyltetrahydro-1H,3′H-spiro[piperidine-4,2′-pyrrolo[2,1-b] [1,3]oxazol]-1-yl]benzonitrile] | < 25
23 | CC1CN(C(=O)c2ccccc2)CCC12O[C@@H]1CC[C@@H](c3cc(F)cc(F)c3)N1C2=O (single isomer, unassigned) [Example 2.4, (3[R or S],4[R or S], 5′S,7a′R)-1-benzoyl-5′-(3,5-difluorophenyl)-3-methyltetrahydro-3′H-spiro[piperidine-4,2′-pyrrolo[2,1-b]oxazol]-3′-one] | < 25
24 | O=C1N2[C@@H](CC[C@H]2c2cc(F)cc(F)c2)OC12CCN(c1ccnc(C(F)F)n1)CC2 [Example 4.9, (5′S,7a′R)-1-[2-(difluoromethyl)pyrimidin-4-yl]-5′-(3,5-difluorophenyl)tetrahydro-3′H-spiro[piperidine-4,2′-pyrrolo[2,1-b] [1,3]oxazol]-3′-one] | < 25
25 | CC1CN(C(=O)c2ccccc2)CCC12O[C@@H]1CC[C@@H](c3cc(F)cc(F)c3)N1C2=O (single isomer, unassigned) [Example 2.6, (3[S or R],4[S or R], 5′S,7a′R)-1-benzoyl-5′-(3,5-difluorophenyl)-3-methyltetrahydro-3′H-spiro[piperidine-4,2′-pyrrolo[2,1-b]oxazol]-3′-one] | < 25
26 | COc1ccc(C(=O)N2CCC3(CC2)O[C@@H]2CC[C@@H](c4cc(F)cc(F)c4)N2C3=O)c(F)c1 [Example 5.58, (5′S,7a′R)-5′-(3,5-difluoro-phenyl)-1-(2-fluoro-4-methoxybenzoyl)tetra-hydro-3′H-spiro[piperidine-4,2′-pyrrolo[2,1-b]oxazol]-3'-one] | 24.8
27 | N#Cc1cnc(N2CCC3(CC2)O[C@@H]2CC[C@@H](c4ccccc4F)N2C3=O)n2ncnc12 [Example 4.242, 5-[(5′S,7a′R)-5′-(2-fluorophenyl)-3′-oxotetrahydro-1H,3′H-spiro[piperidine-4,2′-pyrrolo[2,1-b] [1,3]oxazol]-1-yl] [1,2,4]triazolo[1,5-c] pyrimidine-8-carbonitrile] | < 25
